Patent publication US5401490A, “Markers of tissue hypoxia” (priority 1989, dated 1995)

Assays:
EMT-6 cells [1] = test: Toxicity to hypoxic EMT-6 cells (surviving fraction); format: cell-based, mouse; conditions: for time required to reduce the cell population by 90%: 37° C.; for selective toxicity to hypoxic EMT-6 tumor cells: in words
Procedure: This represents a cytosidal toxicity about 10× that of MISO under the same conditions.
EXAMPLE 9 TOXICITY STUDIES
EMT-6 mouse fibrosarcoma cells in stirred cultures, as described previously (5), were exposed to various concentrations of the test drugs under hypoxic conditions. Cells were removed at various intervals and the colony-forming ability was assessed by plating the cells in drug-free complete MEM with 10% fetal calf serum. The data were used to construct plots of surviving fraction of EMT-6 cells against time of incubation with test drug at various drug concentrations (FIG. 2) as in Jette (13).

EMT-6 cells [2] = test: Hypoxic cell radiosensitizing ability (post-irradiation survival); format: cell-based, mouse; conditions: for sensitizer enhancement ratio (SER): 50 μM, 90% cell kill, hypoxic; for sensitisation to lethal effects of ionising radiation: in words
Procedure: Cell cultures were examined under oxic (air) and hypoxic incubation, with various concentrations of test drug, and at several doses of radiation.

[3] = Blood clearance and whole body elimination of radioactivity; format: in vivo, BALB/C mice; conditions: for major route of excretion: high kidney radioactivity at short time periods; for blood clearance / excretion of radioactivity from the body: i.v. bolus, ^125 I-labelled
Excerpt: Each data point represents the mean of 6 animals.
Tables 1 and 2 show the percent of injected IAZG and IAZA respectively per gram of wet tissue for selected tissues excised from BALB/C mice bearing EMT-6 tumors. This tumor model is known to have a high hypoxic fraction (0.33) (16). […] Hepatobiliary excretion may play a role in blood clearance as evidenced by elevated liver radioactivity and the appearance of activity in the intestine. Some oxidative or reductive metabolites of the 2-nitroimidazoles may also become bound to liver tissue, as was postulated in an in vivo study with ^14 C-MISO (6). This supposition is supported by the persistence of liver radioactivity at longer time periods. […] At 8 and 24 hours thyroid levels of IAZG are 7.2 and 30.9% of the total body activity and for IAZA they are 7.9 and 33.8% of total body activity.
EXAMPLE 11 TISSUE DISTRIBUTION AND EXCRETION
Tumor propagation of EMT-6 tumors in BALB/C mice was accomplished by subcutaneous injection of a cell suspension (10^5 cells in 0.1 mL) as described previously (10). Tumors reached about 10 mm in diameter (≈0.5 g) at 12 to 14 days, at which time each animal was given a bolus intravenous injection of ^125 I-labelled test drug via the tail vein (40 to 60 kBq in 0.1 mL). At set time periods the animals were asphyxiated with CO2 and exsanguinated via cardiac puncture. Tissues were dissected, weighed wet into vials and counted for ^125 I-activity. Whole-body activity was determined by summation of total activity in tissues and in residual carcass, and blood activity was determined from the blood aliquot, assuming blood to be 6.5% of the total body weight.

[4] = Long term storage in solution; format: physicochemical
Excerpt: Both IAZA and IAZG are synthesised, in high yield, from commercial precursors (FIG. 1) and undergo high-yield isotope exchange reactions with radioiodine to produce the required radiolabelled test compounds. […] Therefore, the compounds were stored as a dry residue in multidose vials under refrigeration and were reconstituted with the appropriate solvent just prior to use. IAZP is similarly synthesised. It will be known to those skilled in the art that other radio halogens may be similarly employed in the exchange reaction.

Structure (SMILES) | time required to reduce the cell population by 90% (EMT-6 cells [1]; 1.0 mM, hypoxic) | cytosidal toxicity relative to MISO (EMT-6 cells [1]; 1.0 mM, hypoxic, same conditions) | selective toxicity to hypoxic EMT-6 tumor cells (EMT-6 cells [1]) | toxicity under oxic conditions (EMT-6 cells [1]; oxic) | sensitizer enhancement ratio (SER) (EMT-6 cells [2]) | sensitisation to lethal effects of ionising radiation (EMT-6 cells [2]) | in vitro radiosensitizer efficiency, comparison (EMT-6 cells [2]; vs azomycin nucleoside class) | initial clearance rates, comparison ([3]; blood and whole body, IAZG vs IAZA) | major route of excretion [3] | blood clearance [3] | excretion of radioactivity from the body [3] | stability on long term storage in solution [4]
O=[N+]([O-])c1nccn1[C@@H]1O[C@H](CI)[C@H](O)[C@H](O)[C@H]1O [IAZG, 1-(6-iodo-6-deoxy-β-D-galactopyranosyl)-2-nitroimidazole] | about 1.75 h | about 10 × | selective toxicity to hypoxic EMT-6 tumor cells | absence of toxicity under oxic conditions | about 1.8 | sensitise these cells to the lethal effects of ionising radiation | most efficient in vitro radiosensitizer of the azomycin nucleoside class produced to date | greater for IAZG than IAZA | via the urine | initial rapid blood clearance | rapid excretion of radioactivity from the body | some decomposition of the pure compounds
O=[N+]([O-])c1nccn1[C@@H]1O[C@H](CI)[C@@H](O)[C@@H]1O [IAZA, 1-(5-iodo-5-deoxy-β-D-arabino-furanosyl)-2-nitroimidazole] | 1.65 h |  | selective toxicity to hypoxic EMT-6 tumor cells |  | ~1.4 | sensitise these cells to the lethal effects of ionising radiation |  |  | via the urine | initial rapid blood clearance | rapid excretion of radioactivity from the body | some decomposition of the pure compounds
